Structures can show the parent of a compound that is named as a salt. Where two headings read alike, the source gives them in different places.
Legend:
in vitro = conditions: African green monkey
[1] = tested on: IL-5 expression in Th2 cells; assay: Inhibition of IL-5 expression in Th2 cells (ELISA); type: cell-based, Balb/C mice; conditions: Splenocyte; Th2 cells from mouse splenocytes, compound 1 nM; read-out: Inhibitory ability against IL-5 expression (%)
Protocol: Specifically, after spleens were collected from Balb/C mice, CD4+ T cells were isolated therefrom and were seeded at 1-2×10^6 per well into a 48-well tissue culture plate coated with anti-CD3 (5 ug/ml) and anti-CD28 (1 ug/ml). At this time, the culture medium was incubated with IL-2 (20 ng/ml), IL-4 (100 ng/ml), anti-IFNγ (10 ug/ml), anti-IL12 (10 ug/ml), and a derivative of 1 nM for two days, transferred to a new tissue culture plate, and further cultured for three days to induce differentiation into Th2 cells. After replacing with a new medium containing anti-IFNγ (10 ug/ml), anti-IL12 (10 ug/ml) and a derivative of 1 nM, polarization of Th2 cells was induced using PMA and A23187. After two days of culture, the cells were centrifuged and the culture medium was taken to perform IL-5 ELISA. IL-5 ELISA was performed according to the test method of the kit manufacturer.

SARS-COV-2 = assay: microbe, parasite or virus in culture; type: cell-based; design: SI (Selectivity Index, CC50/IC50): unit not given here; conditions: for SI (Selectivity Index, CC50/IC50): SARS-COV-2, values >50 assumed to be 50; for IC50: read-out: SARS-COV-2 inhibition (IC50)
[2] = Severe acute respiratory syndrome coronavirus 2, Vero cells, 24 hours infection
[3] = Severe acute respiratory syndrome coronavirus 2, Vero, 24 h

SMILES | CC50 (in vitro) [µM] | inhibition at 0.001 µM [1] [%] | SI (Selectivity Index, CC50/IC50) (SARS-COV-2) | IC50 (SARS-COV-2; [2]) [µM] | IC50 (SARS-COV-2; [3]) [µM]
CCCOCCN(CCC)c1ncc(-c2c3c(cc4cc(OC)c(OC)cc24)COC3=O)cn1 [Example 42, 6,7-dimethoxy-9-(2-((2-propoxyethyl)(propyl)amino)pyrimidin-5-yl)naphtho[2,3-c]furan-1(3H)-one] | > 50 | 64.8 | 1.00 | > 50 | –
COc1cc2cc3c(c(N[C@H]4CCc5c(cccc5OC)C4)c2cc1OC)C(=O)OC3 [Example 1, (S)-6,7-dimethoxy-9-((5-methoxy-1,2,3,4-tetrahydronaphthalen-2-yl)amino)naphtho[2,3-c]furan-1(3H)-one] | > 50 | 61.9 | 1.00 | > 50 | –
COc1cc2cc3c(c(-c4cnc(N5CCC[C@H]5C(=O)N[C@@H](C)c5ccc(F)cc5)nc4)c2cc1OC)C(=O)OC3 [Example 39, (S)-1-(5-(6,7-dimethoxy-3-oxo-1,3-dihydronaphtho[2,3-c]furan-4-yl)pyrimidin-2-yl)-N—((S)-1-(4-fluorophenyl)ethyl)pyrrolidin-2-carboxamide] | > 50 | 47.7 | 1.98 | 13.6 | –
COC(=O)[C@@H](C)NC(=O)[C@@H]1CCCN1c1ncc(-c2c3c(cc4cc(OC)c(OC)cc24)COC3=O)cn1 [Example 38, Methyl (5-(6,7-dimethoxy-3-oxo-1,3-dihydronaphtho[2,3-c]furan-4-yl)pyrimidin-2-yl)-L-prolyl-D-alaninate] | – | 62.8 | – | – | –
CCOC(=O)CNc1ncc(-c2c3c(cc4cc(OC)c(OC)cc24)COC3=O)cn1 [Example 44, Ethyl (5-(6,7-dimethoxy-3-oxo-1,3-dihydronaphtho[2,3-c]furan-4-yl)pyrimidin-2-yl)glycinate] | – | 58.3 | – | – | –
CCOC(=O)CNC(=O)[C@@H]1CCCN1c1ncc(-c2c3c(cc4cc(OC)c(OC)cc24)COC3=O)cn1 [Example 45, Ethyl (5-(6,7-dimethoxy-3-oxo-1,3-dihydronaphtho[2,3-c]furan-4-yl)pyrimidin-2-yl)-L-proglycinate] | – | 64.2 | – | – | –
COc1cc2cc3c(c(-c4cnc(Cl)c(N(C)C)c4)c2cc1OC)C(=O)OC3 [Example 201, 9-(6-chloro-5-(dimethylamino)pyridin-3-yl)-6,7-dimethoxynaphtho[2,3-c]furan-1(3H)-one] | > 50 | – | 39.52 | 1.27 | –
CCN(CC)CCNc1ncc(-c2c3c(cc4cc(OC)c(OC)cc24)COC3=O)cn1 [Example 58, 9-(2-((2-(diethylamino)ethyl)amino)pyrimidin-5-yl)-6,7-dimethoxynaphtho[2,3-c]furan-1(3H)-one] | > 50 | – | 1.66 | 30.1 | –
COc1cc2cc3c(c(-c4ccc5[nH]ccc5c4)c2cc1OC)C(=O)OC3 [Example 34, 9-(1H-indol-5-yl)-6,7-dimethoxynaphtho[2,3-c]furan-1(3H)-one] | > 50 | – | 12.40 | 4.03 | –
COc1cc2cc3c(c(-c4cnc(N5CC(C)(C)OC(C)(C)C5)nc4)c2cc1OC)C(=O)OC3 [Example 114, 6,7-dimethoxy-9-(2-(2,2,6,6-tetramethylmorpholino)pyrimidin-5-yl)naphtho[2,3-c]furan-1(3H)-one] | > 50 | – | 1.0 | > 50 | –
COc1cc2cc3c(c(-c4ccc(N5CCCC(C)C5)nc4)c2cc1OC)C(=O)OC3 (stereo not drawn) [Example 126, 6,7-dimethoxy-9-(6-(3-methylpiperidin-1-yl)pyridin-3-yl)naphtho[2,3-c]furan-1(3H)-one] | > 50 | – | 122.97 | 0.41 | –
COc1cc2cc3c(c(-c4ccc(-c5c(OC)ncnc5OC)cc4)c2cc1OC)C(=O)OC3 [Example 157, 9-(4-(4,6-dimethoxypyrimidin-5-yl)phenyl)-6,7-dimethoxynaphtho[2,3-c]furan-1(3H)-one] | > 50 | – | 1.0 | > 50 | –
COC(=O)CN(C)c1ncc(-c2c3c(cc4cc(OC)c(OC)cc24)COC3=O)cn1.Cl [Example 90, methyl N-(5-(6,7-dimethoxy-3-oxo-1,3-dihydronaphtho[2,3-c]furan-4-yl)pyrimidin-2-yl)-N-methyl glycinate hydrochloride] | > 50 | – | 16.96 | – | 2.95
COc1cc2cc3c(c(-c4ccc(N5CCC(N(C)C)CC5)nc4)c2cc1OC)C(=O)OC3.Cl [Example 238, 9-(6-(4-(dimethylamino)piperidin-1-yl)pyridin-3-yl)-6,7-dimethoxynaphtho[2,3-c]furan-1(3H)-one] | > 50 | – | 2.84 | – | 17.6
CCCCCCCCN(CCCCCCCC)c1ncc(-c2c3c(cc4cc(OC)c(OC)cc24)COC3=O)cn1.Cl [Example 95, 9-(2-(dioctylamino)pyrimidin-5-yl)-6,7-dimethoxynaphtho[2,3-c]furan-1(3H)-one hydrochloride] | > 50 | – | 1.00 | – | > 50
COc1cc2cc3c(c(-c4cnc(N5CCCCC5CO)nc4)c2cc1OC)C(=O)OC3 (stereo not drawn) [Example 104, 9-(2-(2-(hydroxymethyl)piperidin-1-yl)pyrimidin-5-yl)-6,7-dimethoxynaphtho[2,3-c]furan-1(3H)-one hydrochloride] | > 50 | – | 1.0 | – | > 50
CCN(CCc1cn(CC)c2ccccc12)c1ccc(-c2c3c(cc4cc(OC)c(OC)cc24)COC3=O)cn1 [Example 197, 9-(6-(ethyl(2-(1-ethyl-1H-indol-3-yl)ethyl)amino)pyridin-3-yl)-6,7-dimethoxynaphtho[2,3-c]furan-1(3H)-one] | > 50 | – | 2.88 | 17.4 | –
COc1cc2cc3c(c(-c4cnc(N(C)CC5CC5)nc4)c2cc1OC)C(=O)OC3 [Example 68, 9-(2-((cyclopropylmethyl)(methyl)amino)pyrimidin-5-yl)-6,7-dimethoxynaphtho[2,3-c]furan-1(3H)-one] | > 50 | – | 270.89 | 0.18 | –
COc1cc2cc3c(c(-c4cc5c(cc4OC(=O)c4cccnc4)OCO5)c2cc1OC)C(=O)OC3 [Example 272, 6-(6,7-dimethoxy-3-oxo-1,3-dihydronaphtho[2,3-c]furan-4-yl)benzo[d][1,3]dioxol-5-yl nicotinate] | > 50 | – | 27.23 | 1.84 | –
COc1cc2cc3c(c(-c4ccc5ncc(C)cc5c4)c2cc1OC)C(=O)OC3 [Example 120, 6,7-dimethoxy-9-(3-methylquinolin-6-yl)naphtho[2,3-c]furan-1(3H)-one] | > 50 | – | 12.07 | 4.14 | –
CCN(Cc1ccncc1)c1ccc(-c2c3c(cc4cc(OC)c(OC)cc24)COC3=O)cn1 [Example 226, 9-(6-(ethyl(pyridin-4-ylmethyl)amino)pyridin-3-yl)-6,7-dimethoxynaphtho[2,3-c]furan-1(3H)-one] | > 50 | – | 7.47 | 6.69 | –
COc1cc2cc3c(c(-c4cnc(N(C)CCC5OCCO5)nc4)c2cc1OC)C(=O)OC3 [Example 158, 9-(2-((2-(1,3-dioxolan-2-yl)ethyl)(methyl)amino)pyrimidin-5-yl)-6,7-dimethoxynaphtho[2,3-c]furan-1(3H)-one] | > 50 | – | 7.26 | 6.89 | –
COc1cc2cc3c(c(-c4ccc(N5CCC(F)(F)CC5)nc4)c2cc1OC)C(=O)OC3 [Example 122, 9-(6-(4,4-difluoropiperidin-1-yl)pyridin-3-yl)-6,7-dimethoxynaphtho[2,3-c]furan-1(3H)-one] | > 50 | – | 512.00 | 0.17 | –
COc1cc2cc3c(c(-c4cnc(NC5CCCC5)nc4)c2cc1OC)C(=O)OC3.Cl [Example 91, 9-(2-(cyclopentylamino)pyrimidin-5-yl)-6,7-dimethoxynaphtho[2,3-c]furan-1(3H)-one hydrochloride] | > 50 | – | 5.15 | – | 9.7
COc1cc2cc3c(c(-c4ccc(N(C)c5nc6ccccc6s5)nc4)c2cc1OC)C(=O)OC3.Cl [Example 225, 9-(6-(benzo[d]thiazol-2-yl(methyl)amino)pyridin-3-yl)-6,7-dimethoxynaphtho[2,3-c]furan-1(3H)-one] | 32.4 | – | 0.65 | – | > 50
COc1cc2cc3c(c(-c4ccc(C(F)(F)F)c5cccnc45)c2cc1OC)C(=O)OC3 [Example 119, 6,7-dimethoxy-9-(5-(trifluoromethyl)quinolin-8-yl)naphtho[2,3-c]furan-1(3H)-one] | > 50 | – | 11.45 | 4.36 | –
COc1cc2cc3c(c(-c4cc(C)nc5c(F)cccc45)c2cc1OC)C(=O)OC3 [Example 134, 9-(8-fluoro-2-methylquinolin-4-yl)-6,7-dimethoxynaphtho[2,3-c]furan-1(3H)-one] | > 50 | – | 1.0 | > 50 | –
